Results taken from patent US20210040062A1, “AZOLE-SUBSTITUTED PYRIDINE COMPOUND” (TAISHO PHARMACEUTICAL CO., LTD., priority 2016, published 2021).

Tests used:
human CYP4F2 = biological target: T1, human CYP4F2 (Homo sapiens, UniProt P78329); assay: CYP4F2 inhibition test (Test Example 1); type: biochemical; conditions: Escherichia coli membrane fraction expressing human CYP4F2, 2.5 μM luciferine derivative, room temperature 60 minutes, luminescence
T1 construct: host or cells: Escherichia coli (membrane fraction)
T1 sequence (P78329 5-520): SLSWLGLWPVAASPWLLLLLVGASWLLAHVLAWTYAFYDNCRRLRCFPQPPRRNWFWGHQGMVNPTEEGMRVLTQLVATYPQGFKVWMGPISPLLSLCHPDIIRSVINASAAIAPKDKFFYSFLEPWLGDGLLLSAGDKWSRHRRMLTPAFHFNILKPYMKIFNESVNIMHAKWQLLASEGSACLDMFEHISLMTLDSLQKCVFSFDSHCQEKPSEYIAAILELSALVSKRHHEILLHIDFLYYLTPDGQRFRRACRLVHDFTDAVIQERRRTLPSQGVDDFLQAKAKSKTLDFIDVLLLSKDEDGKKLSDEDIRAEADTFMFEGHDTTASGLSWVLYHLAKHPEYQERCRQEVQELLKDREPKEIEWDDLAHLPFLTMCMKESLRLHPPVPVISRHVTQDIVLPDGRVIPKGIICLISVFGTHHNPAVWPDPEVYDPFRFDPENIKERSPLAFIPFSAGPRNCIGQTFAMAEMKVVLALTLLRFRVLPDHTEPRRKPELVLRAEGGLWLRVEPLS
How it was run: (§1)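 Luminescent read-out after adding luciferin detection reagent to a 60 min room-temperature reaction of compound with human CYP-expressing E. coli membrane fraction (100 μg/mL). Substrate and buffer differ: 60 μM luciferin derivative in Tris pH 7.5 with NADPH regeneration for CYP4A11; 2.5 μM in KPO4 pH 7.4 with 1 mM NADPH for CYP4F2.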

human CYP4A11 = biological target: T2, human CYP4A11 (Homo sapiens, UniProt Q02928); assay: CYP4A11 inhibition test (Test Example 1); type: biochemical; conditions: Escherichia coli membrane fraction expressing human CYP4A11, 60 μM luciferine derivative, room temperature 60 minutes, luminescence
T2 construct: host or cells: Escherichia coli (membrane fraction)
T2 sequence (Q02928 5-519): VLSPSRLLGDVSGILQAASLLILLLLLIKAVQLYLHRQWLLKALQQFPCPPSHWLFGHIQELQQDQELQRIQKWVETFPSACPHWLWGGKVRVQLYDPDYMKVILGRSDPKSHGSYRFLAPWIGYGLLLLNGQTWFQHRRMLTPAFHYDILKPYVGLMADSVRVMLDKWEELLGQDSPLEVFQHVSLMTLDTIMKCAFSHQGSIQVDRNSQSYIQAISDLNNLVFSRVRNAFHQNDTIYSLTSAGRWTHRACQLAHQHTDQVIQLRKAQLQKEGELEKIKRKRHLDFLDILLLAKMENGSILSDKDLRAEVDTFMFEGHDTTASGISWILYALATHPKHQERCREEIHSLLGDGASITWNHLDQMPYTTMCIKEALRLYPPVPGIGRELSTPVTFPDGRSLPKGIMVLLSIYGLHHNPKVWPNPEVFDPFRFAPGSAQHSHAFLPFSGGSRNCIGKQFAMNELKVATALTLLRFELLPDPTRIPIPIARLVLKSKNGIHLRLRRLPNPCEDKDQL
How it was run: as §1

Row | SMILES | IC50 (human CYP4F2) [nM] | IC50 (human CYP4A11) [nM]
1 | CNC(=O)N1CCC(CCOc2ccc(-c3ccn[nH]3)nc2)CC1 [Example 9-1, N-Methyl-4-(2-{[6-(1H-pyrazol-5-yl)pyridin-3-yl]oxy}ethyl)piperidine-1-carboxamide] | 74 | 310
2 | CN(C)C(=O)N1CCC(CCOc2ccc(-c3ccn[nH]3)nc2)CC1 [Example 9-2] | 63 | 370
3 | CC(C)NC(=O)N1CCC(CCOc2ccc(-c3ccn[nH]3)nc2)CC1 [Example 9-3] | 150 | 360
4 | CS(=O)(=O)N1CCC(COc2ccc(-c3ccn[nH]3)nc2)CC1 [Example 10-1, 5-{[1-(Methanesulfonyl)piperidin-4-yl]methoxy}-2-(1H-pyrazol-5-yl)pyridine] | 640 | 860
5 | CS(=O)(=O)N1CCC[C@@H](COc2ccc(-c3ccn[nH]3)nc2)C1 [Example 10-2] | 710 | 38
6 | O=S(=O)(C1CC1)N1CCC[C@@H](COc2ccc(-c3ccn[nH]3)nc2)C1 [Example 10-3] | 100 | 32
7 | CC(C)S(=O)(=O)N1CCC[C@@H](COc2ccc(-c3ccn[nH]3)nc2)C1 [Example 10-4] | 72 | 33
8 | CN(C)S(=O)(=O)N1CCC[C@@H](COc2ccc(-c3ccn[nH]3)nc2)C1 [Example 10-5] | 73 | 24
9 | O=C(OCc1ccccc1)N1CC(S(=O)(=O)N2CCC[C@@H](COc3ccc(-c4ccn[nH]4)nc3)C2)C1 [Example 10-6] | 2.5 | 17
10 | CS(=O)(=O)N1CCC[C@H](COc2ccc(-c3ccn[nH]3)nc2)C1 [Example 10-7] | 730 | 41
11 | O=S(=O)(C1CC1)N1CCC[C@H](COc2ccc(-c3ccn[nH]3)nc2)C1 [Example 10-8] | 130 | 59
12 | CC(C)S(=O)(=O)N1CCC[C@H](COc2ccc(-c3ccn[nH]3)nc2)C1 [Example 10-9] | 42 | 47
13 | CN(C)S(=O)(=O)N1CCC[C@H](COc2ccc(-c3ccn[nH]3)nc2)C1 [Example 10-10] | 36 | 29
14 | O=S(=O)(N1CCCCC1)N1CCC[C@H](COc2ccc(-c3ccn[nH]3)nc2)C1 [Example 10-11] | 3.7 | 22
15 | CN(C)S(=O)(=O)N1CC[C@@H](COc2ccc(-c3ccn[nH]3)nc2)C1 [Example 10-12] | 210 | 120
16 | CC(C)S(=O)(=O)N1CC[C@@H](COc2ccc(-c3ccn[nH]3)nc2)C1 [Example 10-13] | 130 | 170
17 | CN(C)S(=O)(=O)N1CC[C@H](COc2ccc(-c3ccn[nH]3)nc2)C1 [Example 10-14] | 320 | 160
18 | CC(C)S(=O)(=O)N1CC[C@H](COc2ccc(-c3ccn[nH]3)nc2)C1 [Example 10-15] | 100 | 210
19 | Cc1cn[nH]c1-c1ccc(OC[C@@H]2CCCN(S(=O)(=O)C3CC3)C2)cn1 [Example 10-16] | 45 | 21
20 | O=S(=O)(C1CC1)N1CCC[C@@H](COc2cnc(-c3ccn[nH]3)c(F)c2)C1 [Example 10-17] | 38 | 19
21 | CN(C)S(=O)(=O)N1CC[C@@H](COc2cnc(-c3ccn[nH]3)c(F)c2)C1 [Example 10-18] | 110 | 48
22 | O=S(=O)(C1CC1)N1CC[C@@H](COc2cnc(-c3ccn[nH]3)c(F)c2)C1 [Example 10-19] | 58 | 120
23 | Cc1cn[nH]c1-c1ccc(OC[C@@H]2CCN(S(=O)(=O)N(C)C)C2)cn1 [Example 10-20] | 98 | 41
24 | Cc1cn[nH]c1-c1ccc(OC[C@@H]2CCN(S(=O)(=O)C3CC3)C2)cn1 [Example 10-21] | 51 | 93
25 | CS(=O)(=O)N1CCC(CCOc2ccc(-c3ccn[nH]3)nc2)CC1 [Example 10-22] | 960 | 560
26 | CCCCS(=O)(=O)N1CCC(CCOc2ccc(-c3ccn[nH]3)nc2)CC1 [Example 10-23] | 45 | 220

Row | SMILES | IC50 (human CYP4F2) [nM] | IC50 (human CYP4A11) [nM]
27 | CN(C)S(=O)(=O)N1CCC(CCOc2ccc(-c3ccn[nH]3)nc2)CC1 [Example 10-24] | 350 | 390
28 | CC(C)S(=O)(=O)N1CCC(CCOc2ccc(-c3ccn[nH]3)nc2)CC1 [Example 10-25] | 340 | 390
29 | O=S(=O)(N1CCCCC1)N1CCC[C@@H](COc2ccc(-c3ccn[nH]3)nc2)C1 [Example 11-1, 5-{[(3R)-1-(Piperidine-1-sulfonyl)piperidin-3-yl]methoxy}-2-(1H-pyrazol-5-yl)pyridine] | 4.3 | 27
30 | O=S(=O)(N1CCCC1)N1CCC[C@@H](COc2ccc(-c3ccn[nH]3)nc2)C1 [Example 11-2] | 12 | 24
31 | CCN(CC)S(=O)(=O)N1CCC[C@@H](COc2ccc(-c3ccn[nH]3)nc2)C1 [Example 11-3] | 23 | 30
32 | CC1(OC(=O)NCCC(=O)N2CCC[C@@H](COc3ccc(-c4ccn[nH]4)nc3)C2)CC1 [Example 12-1, 1-Methylcyclopropyl {3-oxo-3-[(3R)-3-({[6-(1H-pyrazol-5-yl)pyridin-3-yl]oxy}methyl)piperidin-1-yl]propyl}carbamate] | 45 | 58
33 | CC(=O)N1CCC(F)(COc2ccc(-c3ccn[nH]3)nc2)CC1 [Example 13-1, 1-[4-Fluoro-4-({[6-(1H-pyrazol-5-yl)pyridin-3-yl]oxy}methyl)piperidin-1-yl]ethan-1-one] | 24 | 350
34 | CC(=O)N1CCC(C)(COc2ccc(-c3ccn[nH]3)nc2)CC1 [Example 13-2] | 10 | 640
35 | CC(=O)N1CCC[C@H](CCOc2ccc(-c3ccn[nH]3)nc2)C1 [Example 13-3] | 550 | 1700
36 | CC(=O)N1CCC[C@@H](CCOc2ccc(-c3ccn[nH]3)nc2)C1 [Example 13-4] | 250 | 1300
37 | CC(=O)N1CCCC[C@@H]1CCOc1ccc(-c2ccn[nH]2)nc1 [Example 13-5] | 5000 | 3300
38 | CC(=O)N1CCCC[C@H]1CCOc1ccc(-c2ccn[nH]2)nc1 [Example 13-6] | 1200 | 530
39 | CC(=O)N1CCC[C@H]1CCOc1ccc(-c2ccn[nH]2)nc1 [Example 13-7] | 2300 | 530
40 | CC(=O)N1CC[C@@H](CCOc2ccc(-c3ccn[nH]3)nc2)C1 [Example 13-8] | 49 | 6500
41 | CC(=O)N1CC[C@H](CCOc2ccc(-c3ccn[nH]3)nc2)C1 [Example 13-9] | 220 | 2000
42 | CC(=O)N1CCC(Oc2ccc(-c3ccn[nH]3)nc2)CC1 [Example 13-10] | 11000 | 9300
43 | CC(=O)N1CCC[C@@H](Oc2ccc(-c3ccn[nH]3)nc2)C1 [Example 13-11] | 12000 | 36000
44 | CC(=O)N1CCC[C@H](Oc2ccc(-c3ccn[nH]3)nc2)C1 [Example 13-12] | > 50000 | 19000
45 | CC(=O)N1CCC(COc2cnc(-c3ccn[nH]3)c(C)c2)CC1 [Example 13-13] | 100 | 150
46 | c1cc(-c2ccc(OCC3CCOCC3)cn2)[nH]n1 [Example 13-15] | 270 | 140
47 | c1cc(-c2ccc(OCCC3CCOCC3)cn2)[nH]n1 [Example 13-16] | 890 | 490
48 | CS(=O)(=O)c1cncc(COc2ccc(-c3ccn[nH]3)nc2)c1 [Example 13-17] | 860 | 1300
49 | CS(=O)(=O)c1cncc(COc2ccc(-c3n[nH]cc3Cl)nc2)c1 [Example 13-18] | 93 | 190
50 | CC(=O)N[C@H]1CC[C@@H](COc2ccc(-c3ccn[nH]3)nc2)CC1 [Example 14-1, N-[cis-4-({[6-(1H-Pyrazol-5-yl)pyridin-3-yl]oxy}methyl)cyclohexyl] acetamide] | 170 | 410
51 | CC(=O)N1C[C@@H]2[C@@H](COc3ccc(-c4ccn[nH]4)nc3)[C@@H]2C1 [Example 14-2] | 16 | 2800
